The nature of this data set: xn = mol fraction of the nth substance listed.

± gives the uncertainty stated by the source.

By viscosity is commonly meant the internal friction of a fluid under shear. Compound `CN1CCCC1=O` + CCCCCCCCn1cc[n+](C)c1.[Cl-] returned a viscosity (293.15 K, 100 kPa, x1 = 1) of 1.853 ± 0.076 mPa·s and a viscosity (318.15 K, 100 kPa, x1 = 1) of 1.259 ± 0.052 mPa·s.

Take `CCCC[n+]1ccn(C)c1.O=S(=O)([N-]S(=O)(=O)C(F)(F)F)C(F)(F)F` + CCCCCCCO: under “298 K, 100 kPa, x1 = 1”, the viscosity came out at 49.7 ± 1.3 mPa·s.

Consider `CCCC[n+]1ccn(C)c1.O=S(=O)([N-]S(=O)(=O)C(F)(F)F)C(F)(F)F` + CCCCCCO, for which, for the setting “298 K, 100 kPa, x1 = 1”, the viscosity was determined as 49.7 ± 1.3 mPa·s.

Take `CC#N` + CCCCCC[P+](CCCC)(CCCC)CCCC.F[B-](F)(F)F: the viscosity reads like this: (293.15 K, 100 kPa, x2 = 0) 0.354 ± 0.021 mPa·s; (298.15 K, 100 kPa, x2 = 0) 0.338 ± 0.02 mPa·s; (303.15 K, 100 kPa, x2 = 0) 0.324 ± 0.02 mPa·s; (308.15 K, 100 kPa, x2 = 0) 0.31 ± 0.019 mPa·s; (313.15 K, 100 kPa, x2 = 0) 0.298 ± 0.018 mPa·s; (318.15 K, 100 kPa, x2 = 0) 0.286 ± 0.017 mPa·s.

The compound `CN1CCCC1=O` + CCCCCC[n+]1ccn(C)c1.N#C[S-] returned a viscosity (288.15 K, 101 kPa, x2 = 0) of 2.133 ± 0.023 mPa·s; a viscosity (298.15 K, 101 kPa, x2 = 0) of 1.791 ± 0.02 mPa·s; a viscosity (308.15 K, 101 kPa, x2 = 0) of 1.548 ± 0.018 mPa·s; a viscosity (318.15 K, 101 kPa, x2 = 0) of 1.312 ± 0.017 mPa·s.

Take `COCCOCCOCCOCCOC` + CCCCCC[n+]1ccn(C)c1.O=S(=O)([N-]S(=O)(=O)C(F)(F)F)C(F)(F)F: the viscosity (288.15 K, 100 kPa, x1 = 0.099) came to 96 ± 2 mPa·s.

Take `CCCCCC[n+]1ccn(C)c1.F[P-](F)(F)(F)(F)F` + CCCCCC[n+]1ccn(C)c1.[Cl-]: the electrical conductivity turned out to be 0.0103 ± 0.00084 S/m (303 K, 101 kPa, x2 = 0.6); 0.00536 ± 0.00045 S/m (303 K, 101 kPa, x2 = 0.8); 0.0299 ± 0.0024 S/m (308 K, 101 kPa, x2 = 0.4); 0.00862 ± 0.00071 S/m (308 K, 101 kPa, x2 = 0.8); 0.13 ± 0.01 S/m (313 K, 101 kPa, x2 = 0); 0.0424 ± 0.0034 S/m (313 K, 101 kPa, x2 = 0.4). The electrical conductivity is, setting by setting: (318 K, 101 kPa, x2 = 0.6) 0.0337 ± 0.0027 S/m; (328 K, 101 kPa, x2 = 0) 0.26 ± 0.021 S/m; (328 K, 101 kPa, x2 = 0.8) 0.0419 ± 0.0034 S/m. Moreover, the viscosity runs as follows: (303.15 K, 101 kPa, x2 = 0.2) 960 ± 300 mPa·s; (303.15 K, 101 kPa, x2 = 0.4) 1853 ± 590 mPa·s; (308.15 K, 101 kPa, x2 = 0) 360 ± 110 mPa·s; (318.15 K, 101 kPa, x2 = 0.4) 600 ± 190 mPa·s; (323.15 K, 101 kPa, x2 = 0.6) 710 ± 220 mPa·s; (328.15 K, 101 kPa, x2 = 0.2) 205 ± 62 mPa·s.

As for `CN(C)C=O` + CCCCCC[n+]1ccn(C)c1.[Cl-], the viscosity by setting is: (288.15 K, 101 kPa, x1 = 1) 0.94 ± 0.22 mPa·s; (298.15 K, 101 kPa, x1 = 1) 0.82 ± 0.21 mPa·s.

In turn, `CCCC[n+]1ccn(C)c1.O=S(=O)([N-]S(=O)(=O)C(F)(F)F)C(F)(F)F` + CCCCCO registered a viscosity (298 K, 100 kPa, x1 = 1) of 49.7 ± 1.3 mPa·s.

Take `CCCCC[P+](CC)(CC)CC.O=S(=O)([N-]S(=O)(=O)C(F)(F)F)C(F)(F)F` + CCCCC[N+](CC)(CC)CC.O=S(=O)([N-]S(=O)(=O)C(F)(F)F)C(F)(F)F: the viscosity is, setting by setting: (283.15 K, 101.3 kPa, x2 = 0) 203 ± 41 mPa·s; (323.15 K, 101.3 kPa, x2 = 0) 30.5 ± 6.1 mPa·s.

Take `CCCC[n+]1ccn(C)c1.O=S(=O)([N-]S(=O)(=O)C(F)(F)F)C(F)(F)F` + CCCCO: the viscosity runs as follows: (298 K, 100 kPa, x1 = 0.05) 3.52 ± 0.026 mPa·s; (298 K, 100 kPa, x1 = 0.1) 4.728 ± 0.042 mPa·s; (298 K, 100 kPa, x1 = 0.1998) 6.745 ± 0.067 mPa·s; (298 K, 100 kPa, x1 = 0.2996) 8.98 ± 0.11 mPa·s; (298 K, 100 kPa, x1 = 0.399) 11.9 ± 0.16 mPa·s; (298 K, 100 kPa, x1 = 0.4991) 15.1 ± 0.24 mPa·s. The viscosity (298 K, 100 kPa, x1 = 0.5995) worked out at 19.41 ± 0.34 mPa·s; the viscosity (298 K, 100 kPa, x1 = 0.6984) is reported as 24.48 ± 0.48 mPa·s; the viscosity (298 K, 100 kPa, x1 = 0.7971) was 31.76 ± 0.69 mPa·s; the viscosity (298 K, 100 kPa, x1 = 0.9005) came out at 39.89 ± 0.95 mPa·s; the viscosity (298 K, 100 kPa, x1 = 1) was 49.7 ± 1.3 mPa·s; the viscosity (298 K, 101 kPa, x2 = 0) is listed as 50.4 ± 1.9 mPa·s. Besides, the electrical conductivity reads like this: (298 K, 101 kPa, x2 = 0.2936) 0.561 ± 0.064 S/m; (298 K, 101 kPa, x2 = 0.317) 0.613 ± 0.064 S/m; (298 K, 101 kPa, x2 = 0.5053) 0.668 ± 0.064 S/m; (298 K, 101 kPa, x2 = 0.6833) 0.653 ± 0.064 S/m; (298 K, 101 kPa, x2 = 0.8349) 0.418 ± 0.064 S/m; (298 K, 101 kPa, x2 = 0.8623) 0.368 ± 0.064 S/m.

Turning to `CCCC[n+]1ccn(C)c1.O=S(=O)([N-]S(=O)(=O)C(F)(F)F)C(F)(F)F` + CCCCOC(C)=O, for the setting “298.15 K, 100 kPa, x2 = 0”, the electrical conductivity was determined as 0.39 ± 0.01 S/m and the viscosity amounted to 50.2 ± 2.3 mPa·s.

The values above are taken from the CheMixHub ionic liquid set.
